Measurements published in US11479587B2, “Cationic intrinsically disordered antimicrobial peptides” (priority 2016, dated 2022).
Several values for one entry are separate records, joined by “and”; a condition that tells them apart may be missing. Identical values can stand only once. Residues, ends and D or L forms follow the SMILES beside them. Primed or numbered codes have the meaning given here. No end group written: not given here. *: point of attachment. FITC′ = fluorescein isothiocyanate; Palmitoyl = CCCCCCCCCCCCCCCC(=O)*

Legend:
[1] = tested on: methicillin-resistant S. aureus strain (ATCC 43300); type: cell-based, Staphylococcus aureus; conditions: ATCC 43300, 18 h
Procedure: Furthermore, sensitivity of a methicillin-resistant S. aureus strain (ATCC 43300) was investigated for palmitoylated CIDAMPs in a microtiter plate screening model, with incubation in Mueller-Hinton medium at 37° C. for 18 h using resazurin as a marker for cell viability.
A sample of each culture was then diluted 40-fold in fresh broth and incubated at 37° C. for 1.5-3 h. […] All the plates were covered and incubated at 37° C. for 18 h.
Inhibition of bacterial growth was determined using resazurin as a marker for cell viability. Resazurin was added to each well, at 0.001% final concentration, and plates incubated at 37° C. for 2 h. Fluorescence intensity was measured, using F (top read), ex 560/10 nm, em 590/10 nm, using a Tecan M1000 Pro monochromator plate reader.

[2] = Cytotoxicity (resazurin) assay
Procedure: For the cytotoxicity (resazurin) assay, HEK293 cells were counted manually in a Neubauer haemocytometer and plated at a density of 4000 cells/well into each well of the 384-well plates containing the 25×(2 μl) concentrated compounds. The medium used was Dulbecco's modified eagle medium (DMEM) supplemented with 10% foetal bovine serum (FBS). Cells were incubated together with the compounds for 20 h at 37° C., 5% CO2. To measure cytotoxicity, 5 μl (equals 100 μM final) resazurin was added to each well after incubation, and incubated for further 3 h at 37° C. with 5% CO2.
After final incubation fluorescence intensity was measured as F ex 560/10 nm, em 590/10 nm (F560/590) using a Tecan M1000 Pro monochromator plate reader. […] The concentration dependent percentage cytotoxicity was fitted to a dose response function (using Pipeline Pilot) and CC50 values determined.

Hemolysis assay = type: cell-based
Procedure: For the hemolysis assays EDTA-blood was centrifuged at 800×g for 10 min, and the plasma and buffy coat were removed. The erythrocytes were washed three times and resuspended in 5% PBS, pH 7.4. The cells were then incubated with end-over-end rotation for 1 h at 37° C. in the presence of different concentrations of peptides (0, 3, 10, 30, 60 μm). 0.1% Triton X-100 (Sigma-Aldrich) served as positive control. The samples were then centrifuged at 800×g for 10 min.
The absorbance of hemoglobin release was measured at 540 nm and is expressed as % of Triton X-100-induced hemolysis. These values of triplicates were plotted with Graph Pad Prism 4 as a dose response curve and the CC50 was determined.

C. albicans ATCC 928 = conditions: for Antifungal activity, C. albcans ATCC90028: standard conditions at pH 7.4, activity at concentration <32 pg/ml
C. neoformans = conditions: for Antifungal activity, C. neoformans ATCC 208821: standard conditions at pH 7.4, activity at concentration <32 pg/ml
[3] = tested on: Klebsiella pneumoniae ATCC 13883; test: CFU-assay, Klebsiella pneumoniae-cidal activity; type: cell-based
P. aeruginosa ATCC 10145 = test: CFU-assay, P. aeruginosa-cidal activity; type: cell-based, Pseudomonas aeruginosa
S. aureus ATCC 6538 = test: CFU-assay, S. aureus-cidal activity; type: cell-based, Staphylococcus aureus
Procedure: (§1) Thus, within the present invention, the antimicrobial activity is generally measured in nutrient deficient 10 mM sodium phosphate buffer pH 5.5, containing 0.25% glucose, using the CFU-assay according to Steinberg and Lehrer, 1997 (supra), unless otherwise indicated. The CFU-assay allows determination of the minimal bactericidal concentration (MBC, e.g., MBC90 and MBC100; i.e. the concentration of compound required to achieve a specified reduction in bacterial cell number (microbial death or killing)).
Various peptides corresponding to repeat domains of hornerin (HR 1-11: HRNR 2606-2628; HR 1-17: HRNR 2656-2684 and HR 1-18: HRNR 2656-2677) were tested for P. aeruginosa ATCC 10145-cidal activity in 10 mM Na-phosphate buffer pH 5.5, containing 0.25% glucose by counting the numbers of colonies of surviving bacteria at serial, twofold dilutions from 300 μg/ml down to 19 ng/ml of each peptide (CFU-assay; Steinberg and Lehrer, 1997, Methods Mol. Biol. 78, 169-186).
Staphylococcus aureus is a major skin pathogen, which causes skin infections, in particular in atopic dermatitis. The sensitivity of S. aureus ATCC 6538 towards several CIDAMPs was assessed using the CFU-assay as above (see Example 1). HR 1-18, which lacks S. aureus.-bactericidal activity, is converted in a S. aureus-cidal peptide, when all His are replaced by Arg (HR 1-18 4H-4R; see Table 13 and FIG. 9). […] HR 1-18 4H-4R is rich in Ser and Arg and contains a single Leu residue. When this single Leu was replaced by Gly in S. aureus-cidal HR 1-18 4H-4R (forming HR 1-18 4H-4R/L-G), S. aureus-cidal activity was abolished at both pH 7.0 and pH 5.5 (see Table 13 and FIG. 9).

[4] = tested on: Candida albicans ATCC 24433; test: CFU-assay, Candida albicans-cidal activity; type: cell-based; conditions: pH 5.5, 0.25% glucose
Procedure: as §1, with “killing)). […]” for “killing)).”
HR 1-17 affects C. albicans ATCC 24433 with highest activity at pH 5.5 in the absence of TSB in the medium (see Tables 12, 24). […] Furthermore, the substitution of any of the Arg residues by Gly leads to a dramatic reduction or loss of candidacidal activity (see Table 24).

Molecule	MIC, S. aureus ATCC 43300 [1] [µg/mL]	CC50 [2]	MIC, C. neoformans ATCC 208821 (C. neoformans) [µg/mL]	MBC90 (P. aeruginosa ATCC 10145; pH 5.0, 0.25% glucose) [µg/mL]	MBC100 (P. aeruginosa ATCC 10145; pH 5.0, 0.25% glucose) [µg/mL]	MBC90 (S. aureus ATCC 6538; pH 5.5, 0.25% glucose) [µg/mL]	MBC100 (S. aureus ATCC 6538; pH 5.5, 0.25% glucose) [µg/mL]	Antifungal activity, C. albcans ATCC90028 (C. albicans ATCC 928)	Antifungal activity, C. neoformans ATCC 208821 (C. neoformans)	also measured
CCCCCCCCCCCCCCCC(=O)N[C@@H](CO)C(=O)N[C@@H](Cc1c[nH]cn1)C(=O)N[C@@H](Cc1c[nH]cn1)C(=O)N[C@@H](CCCNC(=N)N)C(=O)N[C@@H](Cc1c[nH]cn1)C(=O)N[C@@H](Cc1ccccc1)C(=O)N[C@@H](CCCNC(=N)N)C(=O)N[C@@H](CO)C(=O)N[C@@H](Cc1c[nH]cn1)C(=O)N[C@@H](CCC(N)=O)C(=O)N[C@@H](CS)C(=O)N[C@@H](CCCNC(=N)N)C(=O)N[C@@H](CCCNC(=N)N)C(=O)O [Pal-LCE3C55-67] (HELM PEPTIDE1{[CCCCCCCCCCCCCCCC(=O)[*:2]].S.H.H.R.H.F.R.S.H.Q.C.R.R}$$$$V2.0)	≥32	> 32 µg/mL	≥1							HC50 (Hemolysis assay): > 100 µg/mL; MIC, C. albicans ATCC 90028 (C. albicans ATCC 928; ATCC 928): ≥16 µg/mL; MIC (C. albicans ATCC 928; ATCC 928, 18 h, pH 7.4): 1 to 32 µg/mL
Pal-SHHRPRLFHRRRH (Palmitoyl-SHHRPRLFHRRRH) [Pal-LCE-3B]										MBC90 ([3]; pH 5.5, 0.25% glucose): 0.15 µg/mL; MBC100 ([3]; pH 5.5, 0.25% glucose): 9.38 µg/mL; MBC90 ([3]; pH 7.3, 0.25% glucose): 2.35 µg/mL; MBC100 ([3]; pH 7.3, 0.25% glucose): 4.7 µg/mL
FITC-GRHGSGLGHSSSHGQHGSGSGR ({FITC′}-GRHGSGLGHSSSHGQHGSGSGR) [FITC-HR 1-18]				0.15	1.18	300	>300			MBC90 [4]: 2.35 µg/mL; MBC100 [4]: 75 µg/mL
SHHRHFRSHQCRR [LCE3C55 67]	≥32		≥8							
N=C(N)NCCC[C@H](NC(=O)[C@H](CCCNC(=N)N)NC(=O)[C@H](CS)NC(=O)[C@H](CCCNC(=N)N)NC(=O)[C@H](Cc1c[nH]cn1)NC(=O)[C@H](CO)NC(=O)[C@H](CCCNC(=N)N)NC(=O)[C@H](CS)NC(=O)[C@H](CS)NC(=O)[C@H](CCCNC(=N)N)NC(=O)[C@H](Cc1c[nH]cn1)NC(=O)[C@H](Cc1c[nH]cn1)NC(=O)[C@@H](N)CO)C(=O)O [LCE3B56-68] (H-SHHRCCRSHRCRR-OH; N-terminus and C-terminus assumed)		> 32 µg/mL and > 18.9 µM				0.075	>150	I (I-inactive)	A (A-active)	S. aureus MBC90 (S. aureus ATCC 6538; pH 5.5): 0.044 µM; S. aureus MBC100 (S. aureus ATCC 6538; pH 5.5): >88.7 µM; max.killing (S. aureus ATCC 6538; pH 5.5, 0.25% glucose): max.killing: 99.3%; MBC90 (S. aureus ATCC 6538; pH 5.5, 0.25% glucose (text)): 0.044 µM; CC50 (Hemolysis assay): > 300 µg/mL; HC50 at 1 h (Hemolysis assay; human, washed erythrocytes from EDTA-blood, pH 7.4): > 113 µM
GRRGGGGGRGGGRGGRGGGGGR (Modified peptide derived from human hornerin (HR 1-18 GR))				<0.019	0.075	>300	>300	I (I-inactive)	I (I-inactive)	MBC90 (P. aeruginosa ATCC 10145; pH 5.5, 0.25% glucose): <0.006 µM; MBC100 (P. aeruginosa ATCC 10145; pH 5.5, 0.25% glucose): 0.075 μg/ml and 0.04 μM
